Experimental findings from the Kinase Knowledgebase extract (Sharma et al. 2016) are described below.

Each structure is given as a SMILES string.

For orientation: IC50 means the concentration that gives 50% inhibition. The low end stands for higher potency, the high end for lower potency. For orientation: inhibition means the share of the control response that was lost under treatment.

EGFR, sequence (P00533 whole entry, looked up): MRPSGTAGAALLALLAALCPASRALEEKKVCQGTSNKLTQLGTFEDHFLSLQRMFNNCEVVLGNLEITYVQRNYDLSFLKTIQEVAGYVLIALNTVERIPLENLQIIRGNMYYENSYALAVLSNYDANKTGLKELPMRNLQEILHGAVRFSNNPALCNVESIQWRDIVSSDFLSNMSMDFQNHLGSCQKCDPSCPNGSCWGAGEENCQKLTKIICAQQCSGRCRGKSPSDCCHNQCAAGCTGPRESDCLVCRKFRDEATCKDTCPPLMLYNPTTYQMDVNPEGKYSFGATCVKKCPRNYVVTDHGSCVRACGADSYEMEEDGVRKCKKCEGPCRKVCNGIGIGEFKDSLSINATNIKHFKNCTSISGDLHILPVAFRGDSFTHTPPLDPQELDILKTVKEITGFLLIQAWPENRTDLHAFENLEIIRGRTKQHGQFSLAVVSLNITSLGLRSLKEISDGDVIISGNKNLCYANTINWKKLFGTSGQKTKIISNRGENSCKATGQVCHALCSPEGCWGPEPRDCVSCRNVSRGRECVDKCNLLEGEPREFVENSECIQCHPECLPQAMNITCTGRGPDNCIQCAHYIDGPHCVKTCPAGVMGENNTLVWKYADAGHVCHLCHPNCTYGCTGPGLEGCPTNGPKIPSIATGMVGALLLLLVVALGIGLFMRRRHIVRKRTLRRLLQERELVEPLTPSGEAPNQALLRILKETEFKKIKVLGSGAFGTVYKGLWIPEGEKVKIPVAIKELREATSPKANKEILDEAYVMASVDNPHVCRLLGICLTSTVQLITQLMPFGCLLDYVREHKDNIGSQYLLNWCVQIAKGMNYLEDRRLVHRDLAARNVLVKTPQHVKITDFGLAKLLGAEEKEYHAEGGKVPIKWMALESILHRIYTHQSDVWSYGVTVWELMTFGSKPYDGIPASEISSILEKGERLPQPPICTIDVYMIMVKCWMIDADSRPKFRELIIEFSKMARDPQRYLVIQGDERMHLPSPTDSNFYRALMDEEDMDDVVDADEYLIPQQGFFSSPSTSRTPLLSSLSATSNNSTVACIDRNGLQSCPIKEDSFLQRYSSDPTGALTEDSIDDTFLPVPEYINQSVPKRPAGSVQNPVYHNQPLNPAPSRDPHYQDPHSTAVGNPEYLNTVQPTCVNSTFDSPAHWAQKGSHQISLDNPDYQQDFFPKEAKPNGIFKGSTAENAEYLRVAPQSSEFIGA

The first assay has as its target EGFR (UniProt P00533).
Conditions: not given
`O=c1ccc2ccc(O)c(O)c2o1` registered a half-maximal inhibitory concentration (IC50) of 7.67 µM. In other words, the single-digit micromolar range.

The same assay, now with this note: concentration not given here.
Molecule `O=c1ccc2ccc(O)c(O)c2o1` showed an inhibition of 99.6%. Regarding `O=c1ccc2ccccc2o1`, the inhibition came out at 0%. On to `OC1C=Cc2ccccc2O1` (configuration not stated), for which the inhibition stood at 0%. For `O=c1ccc2ccc(O)cc2o1`, the inhibition worked out at 0%. Still for that read-out and setting: the same measure for `O=c1ccc2cc(O)c(O)cc2o1`: 0%; for `O=c1cc(O)c2ccccc2o1`: 0%.
